Several values for one entry are separate records, joined by “and”; a condition that tells them apart may be missing. Equal values may be shown once. Toxic doses and inconclusive results are not listed. How the source made its calls: active means survival T/C of 150% or more; inactive means T/C below 125% in these data. Peptide text beside a SMILES is read from it.
System: P388 leukemia ip, CD2F1 mice, survival T/C
Test: NCI In Vivo Anticancer Drug Screen. Data for tumor model P388 Leukemia (intraperitoneal) in CD2F1 (CDF1) mice
Settings: endpoint: median survival time, higher = longer survival
In short: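 Mice carrying the transplanted tumor received test compound or vehicle. Survival was recorded in each group, and the value is the treated-group measurement divided by that of the vehicle-treated control group.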

[1] = dose: 100.0 mg/kg/injection, schedule: Q01DX001 (ip), vehicle: Klucel (hydroxypropylcellulose) (HPC)
[2] = dose: 100.0 mg/kg/injection, schedule: Q04DX002 (ip), vehicle: saline with Tween-80
[3] = dose: 200.0 mg/kg/injection, schedule: Q04DX002 (ip), vehicle: saline with Tween-80
[4] = dose: 400.0 mg/kg/injection, schedule: Q04DX002 (ip), vehicle: saline with Tween-80
[5] = dose: 60.0 mg/kg/injection, schedule: Q01DX005 (ip), vehicle: saline with Tween-80
[6] = dose: 120.0 mg/kg/injection, schedule: Q01DX005 (ip), vehicle: saline with Tween-80
[7] = dose: 50.0 mg/kg/injection, schedule: Q01DX009 (ip), vehicle: Klucel (hydroxypropylcellulose) (HPC)
[8] = dose: 100.0 mg/kg/injection, schedule: Q01DX009 (ip), vehicle: Klucel (hydroxypropylcellulose) (HPC)
[9] = dose: 200.0 mg/kg/injection, schedule: Q01DX009 (ip), vehicle: Klucel (hydroxypropylcellulose) (HPC)
[10] = dose: 25.0 mg/kg/injection, schedule: Q01DX009 (ip), vehicle: saline
[11] = dose: 50.0 mg/kg/injection, schedule: Q01DX005 (ip), vehicle: Klucel (hydroxypropylcellulose) (HPC)
[12] = dose: 100.0 mg/kg/injection, schedule: Q01DX005 (ip), vehicle: Klucel (hydroxypropylcellulose) (HPC)
[13] = dose: 200.0 mg/kg/injection, schedule: Q01DX005 (ip), vehicle: Klucel (hydroxypropylcellulose) (HPC)
[14] = dose: 60.0 mg/kg/injection, schedule: Q01DX005 (ip), vehicle: saline
[15] = dose: 120.0 mg/kg/injection, schedule: Q01DX005 (ip), vehicle: saline
[16] = dose: 240.0 mg/kg/injection, schedule: Q01DX005 (ip), vehicle: saline
[17] = dose: 50.0 mg/kg/injection, schedule: Q01DX005 (ip), vehicle: saline with Tween-80
[18] = dose: 100.0 mg/kg/injection, schedule: Q01DX005 (ip), vehicle: saline with Tween-80
[19] = dose: 200.0 mg/kg/injection, schedule: Q01DX005 (ip), vehicle: saline with Tween-80

Measured: T/C

O=C(/C=C/C1N=C1c1ccccc1)c1ccccc1 (stereo not given)
inactive: dose: 25.0 mg/kg/injection, schedule: Q01DX001 (ip), vehicle: Klucel (hydroxypropylcellulose) (HPC) 100 % of control | dose: 50.0 mg/kg/injection, schedule: Q01DX001 (ip), vehicle: Klucel (hydroxypropylcellulose) (HPC) 107 % of control | [1] 106 % of control and 107 % of control

OC1CSCc2ccccc21 (stereo not given)
inactive: dose: 25.0 mg/kg/injection, schedule: Q01DX009 (ip), vehicle: other 109 % of control | dose: 50.0 mg/kg/injection, schedule: Q01DX009 (ip), vehicle: other 102 % of control | dose: 100.0 mg/kg/injection, schedule: Q01DX009 (ip), vehicle: other 109 % of control | dose: 200.0 mg/kg/injection, schedule: Q01DX009 (ip), vehicle: other 108 % of control

CC(C)=CCC(OC(=O)C=C(C)C)c1cc(O)c2c(O)ccc(O)c2c1O.[Fe] (stereo not given)
inactive: [2] 92 % of control | [3] 92 % of control | [4] 93 % of control

COc1ccc(C(c2cc3c(cc2O)OCO3)N2CCCCC2)cc1OC (stereo not given)
inactive: [5] 107 % of control | [6] 110 % of control | dose: 240.0 mg/kg/injection, schedule: Q01DX005 (ip), vehicle: saline with Tween-80 120 % of control

CC(C)N1CCC(OC(=O)Nc2ccccc2)C1 (stereo not given)
inactive: [7] 100 % of control | [8] 99 % of control | [9] 98 % of control

CC(Cl)C(=O)N/N=C(/c1ccccc1)C(C)(C)C (stereo not given)
inactive: dose: 50.0 mg/kg/injection, schedule: Q01DX009 (ip), vehicle: saline with Tween-80 89 % of control | dose: 100.0 mg/kg/injection, schedule: Q01DX009 (ip), vehicle: saline with Tween-80 86 % of control

COc1cc(OC)cc(C2(C(O)C3OC(C)(C)OC3C)SCCCS2)c1 (stereo not given)
inactive: [1] 103 % of control | dose: 200.0 mg/kg/injection, schedule: Q01DX001 (ip), vehicle: Klucel (hydroxypropylcellulose) (HPC) 99 % of control | dose: 400.0 mg/kg/injection, schedule: Q01DX001 (ip), vehicle: Klucel (hydroxypropylcellulose) (HPC) 97 % of control

Oc1cc(O)cc(/C=C/c2ccc(O)cc2O)c1
inactive: dose: 2.0 mg/kg/injection, schedule: Q01DX009 (ip), vehicle: Klucel (hydroxypropylcellulose) (HPC) 102 % of control | dose: 4.0 mg/kg/injection, schedule: Q01DX009 (ip), vehicle: Klucel (hydroxypropylcellulose) (HPC) 105 % of control | dose: 8.0 mg/kg/injection, schedule: Q01DX009 (ip), vehicle: Klucel (hydroxypropylcellulose) (HPC) 101 % of control | dose: 16.0 mg/kg/injection, schedule: Q01DX009 (ip), vehicle: Klucel (hydroxypropylcellulose) (HPC) 94 % of control | dose: 32.0 mg/kg/injection, schedule: Q01DX009 (ip), vehicle: Klucel (hydroxypropylcellulose) (HPC) 101 % of control

CSc1nc2c3ccccc3ccn2c(=N)c1C#N
inactive: dose: 25.0 mg/kg/injection, schedule: Q04DX002 (ip), vehicle: saline 104 % of control | dose: 50.0 mg/kg/injection, schedule: Q04DX002 (ip), vehicle: saline 109 % of control

CC(N)(CCSCP(=O)(O)O)C(=O)O (stereo not given)
inactive: [5] 99 % of control | [6] 91 % of control

C[N+]12CN3CN(CP(C3)C1)C2
inactive: dose: 6.25 mg/kg/injection, schedule: Q01DX009 (ip), vehicle: saline 99 % of control | dose: 12.5 mg/kg/injection, schedule: Q01DX009 (ip), vehicle: saline 100 % of control | [10] 101 % of control

CC(C)CC(NC(=O)C(Cc1ccccc1)NC(=O)CNC(=O)CN)C(=O)O (stereo not given) (H-GGFL-OH; configuration not given here)
inactive: dose: 12.5 mg/kg/injection, schedule: Q01DX005 (ip), vehicle: water 100 % of control | dose: 25.0 mg/kg/injection, schedule: Q01DX005 (ip), vehicle: water 100 % of control | dose: 50.0 mg/kg/injection, schedule: Q01DX005 (ip), vehicle: water 96 % of control | dose: 100.0 mg/kg/injection, schedule: Q01DX005 (ip), vehicle: water 102 % of control | dose: 200.0 mg/kg/injection, schedule: Q01DX005 (ip), vehicle: water 96 % of control

CC(Cc1ccccc1)C(=O)Nc1ccccc1 (stereo not given)
inactive: [2] 91 % of control | [3] 94 % of control | [4] 91 % of control

C=CC(c1ccccc1)c1cc2c(cc1OCC)OCO2 (stereo not given)
inactive: [11] 105 % of control | [12] 100 % of control | [13] 94 % of control

O=P1(N2CCOCC2)OC(c2ccccc2)=CCN1c1ccc(Cl)cc1 (stereo not given)
inactive: [11] 104 % of control | [12] 100 % of control | [13] 95 % of control

COC(=O)C(C)(OC)OC
inactive: dose: 100.0 mg/kg/injection, schedule: Q04DX003 (ip), vehicle: saline 100 % of control | dose: 200.0 mg/kg/injection, schedule: Q04DX003 (ip), vehicle: saline 109 % of control | dose: 400.0 mg/kg/injection, schedule: Q04DX003 (ip), vehicle: saline 100 % of control

Cc1nc2sccn2c1C(N)=O
inactive: dose: 60.0 mg/kg/injection, schedule: Q01DX005 (ip), vehicle: Klucel (hydroxypropylcellulose) (HPC) 94 % of control | dose: 100.0 mg/kg/injection, schedule: Q01DX001 (ip), vehicle: saline with Tween-80 103 % of control | dose: 120.0 mg/kg/injection, schedule: Q01DX005 (ip), vehicle: Klucel (hydroxypropylcellulose) (HPC) 97 % of control | dose: 200.0 mg/kg/injection, schedule: Q01DX001 (ip), vehicle: saline with Tween-80 114 % of control | dose: 400.0 mg/kg/injection, schedule: Q01DX001 (ip), vehicle: saline with Tween-80 103 % of control

CONS(=O)(=O)c1ccccc1C(=O)OC
inactive: [11] 105 % of control | [12] 100 % of control | [13] 103 % of control

Cc1ccc(S(=O)(=O)C2CC(=O)N(c3ccc(F)c(Cl)c3)C2=O)cc1 (stereo not given)
inactive: [2] 94 % of control | [3] 94 % of control | [4] 96 % of control

C/C=C/C1OC(OC)(OC)C1(OC)OC (stereo not given)
inactive: [14] 100 % of control | [15] 100 % of control | [16] 100 % of control

CN(C)CCOCN1COCC1(C)C
inactive: [10] 123 % of control

CCCCCCCCCCCCOC(=O)c1ccc(O)cc1
inactive: [7] 98 % of control | [8] 94 % of control

Nc1cccc2c1C(=O)c1cccc(N)c1C2=O
inactive: [17] 100 % of control | [7] 97 % of control | [18] 91 % of control | [8] 100 % of control | [19] 100 % of control | [9] 108 % of control | dose: 400.0 mg/kg/injection, schedule: Q01DX009 (ip), vehicle: Klucel (hydroxypropylcellulose) (HPC) 104 % of control

COC(=O)C1=C(C(=O)OC)C(c2ccccc2)N(C)O1 (stereo not given)
inactive: [17] 103 % of control | [18] 98 % of control | [19] 106 % of control

CN(C)NP(=O)(NN(C)C)c1ccccc1
inactive: [14] 100 % of control | [15] 103 % of control | [16] 109 % of control

— PubChem BioAssay AID330 (DTP/NCI, 2004)
